# Measured values: patent publication US9732060B2, “Aminotriazine derivative and pharmaceutical composition comprising the same” (Shionogi & Co., Ltd., priority 2013, dated 2017)
# Tests used:
# [1] = target: Rat P2X3 receptor (Rattus norvegicus (Rat), UniProt P49654); assay: Evaluation of rat P2X3 receptor inhibitory activity in the presence of rat serum albumin (RSA); assay type: cell-based; settings: read-out: ratP2X3 + RSA IC50
# Protocol: Rat P2X3 receptor gene (GenBank accession number NM_031075) was expressed in C6BU-1 cell. The C6BU-1 cells were seeded in a 96-well micro titer plate at a concentration of 2500 cells/well and cultured in the medium (7.0% fetal bovine serum, 7.0% horse serum, and 1% antibiotic and antifungal in DMEM) for one day at 37° C. under 5% carbon dioxide atmosphere. The plasmid was transfected into the cells using transfection reagent FuGENE6 (Promega). The transfected cells were cultured in the medium for one day at 37° C. under 5% carbon dioxide atmosphere. The medium was replaced with 4 μM Fluo-4-AM solution (pH 7.5) containing 20 mM HEPES, 137 mM NaCl, 5.27 mM KCl, 0.9 mM MgCl2, 1.26 mM CaCl2, 5.6 mM D-glucose, 2.5 mM probenecid, 10% RSA, and 0.08% Pluronic F-127, and incubated at 37° C. under 5% dioxide carbon atmosphere for one hour. The plate was washed with washing buffer (20 mM HEPES, 137 mM NaCl, 5.27 mM KCl, 0.9 mM MgCl2, 1.26 mM CaCl2, 5.6 mM D-glucose, 2.5 mM probenecid, pH 7.5), and each well was added with 40 μL of this buffer. The plate was placed in High-Throughput Screening System FDSS 3000 (Hamamatsu Photonics K.K.). Measurement of fluorescence intensity by FDSS 3000 was started, and 40 μL of DMSO solutions containing 1% RSA (final concentrations) and different concentrations of the test compound as prepared by dilution with dilution buffer (20 mM HEPES, 137 mM NaCl, 5.27 mM KCl, 0.9 mM MgCl2, 1.26 mM CaCl2, 5.6 mM D-glucose, 2.5 mM probenecid, 0.1% Pluronic F-127, pH 7.5) were dispensed to each well through the built-in automatic dispenser. Five minutes after, 50 nM ATP solution (50 μL) prepared by dilution with the dilution buffer was dispensed through the built-in automatic dispenser, and the measurement of fluorescence intensity was continued for 4 min. For each well, the specific maximum fluorescence intensity was calculated as the ratio of the maximum fluorescence intensity after addition of the ATP solution to the fluorescence intensity at the starting of the measurement. […] FDSS software (Hamamatsu Photonics K.K.) was used for calculation of the specific maximum fluorescence intensity. IC50 was calculated using Microsoft Excel (Microsoft Corporation) and XLfit (idbs Ltd.).
# [2] = target: T1, human P2X3 receptor (Homo sapiens (Human), UniProt P56373); assay: Evaluation of human P2X3 receptor inhibitory activity (FLIPR Ca fluorescence, ATP-evoked); assay type: cell-based; settings: C6BU-1 cells stably expressing human P2X3 receptor
# T1 sequence (P56373 whole entry): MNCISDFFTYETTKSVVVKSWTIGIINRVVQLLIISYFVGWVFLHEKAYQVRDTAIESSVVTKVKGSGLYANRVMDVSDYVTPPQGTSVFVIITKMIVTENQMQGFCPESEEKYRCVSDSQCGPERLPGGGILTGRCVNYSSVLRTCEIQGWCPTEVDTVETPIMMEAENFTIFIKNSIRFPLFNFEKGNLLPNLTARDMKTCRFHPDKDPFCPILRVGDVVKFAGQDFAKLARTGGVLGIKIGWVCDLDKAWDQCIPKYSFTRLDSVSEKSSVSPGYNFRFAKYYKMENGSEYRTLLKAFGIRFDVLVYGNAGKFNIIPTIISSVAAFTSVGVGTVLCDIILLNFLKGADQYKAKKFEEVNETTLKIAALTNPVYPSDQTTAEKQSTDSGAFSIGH
# Protocol: Stably expressing cell line (C6BU-1 cell transfected with human P2X3 receptor gene (GenBank accession number Y07683) was used. The cells were seeded in a 384-well PDL-coated microtiter plate at a concentration of 3000 cells/well and cultured in the medium (8.3% fetal bovine serum, 8.3% horse serum, and 1% antibiotic and antifungal in DMEM) for one day at 37° C. under 5% carbon dioxide atmosphere. The medium was replaced with 4 μM Fluo-3-AM solution (20 mM HEPES, 137 mM NaCl, 2.7 mM KCl, 0.9 mM MgCl2, 5.0 mM CaCl2, 5.6 mM D-glucose, 2.5 mM probenecid, 0.5% BSA, and 0.04% Pluronic P-127, pH 7.5) and incubated at 37° C. under 5% dioxide carbon atmosphere for one hour. The plate was washed with washing buffer (20 mM HEPES, 137 mM NaCl, 2.7 mM KCl, 0.9 mM MgCl2, 5.0 mM CaCl2, 5.6 mM D-glucose, 2.5 mM probenecid, pH 7.5), and each well was added with 20 μL of the washing buffer. The plate was placed in High-Throughput Screening System FLIPR 384 (Molecular Device Co.). Measurement of fluorescence intensity by […] was started, and 20 μL of DMSO solutions containing different concentrations of the test compound as prepared by dilution with dilution buffer (20 mM HEPES, 137 mM NaCl, 2.7 mM KCl, 0.9 mM MgCl2, 5.0 mM CaCl2, 5.6 mM D-glucose, 2.5 mM probenecid, 0.1% Pluronic F-127, pH 7.5) were dispensed to each well through the built-in automatic dispenser. Five minutes after, 150 nM ATP solution (25 μL) prepared by dilution with the dilution buffer was dispensed through the built-in automatic dispenser, and the measurement of fluorescence intensity was continued for 4 min. For each well, the specific maximum fluorescence intensity was calculated as the ratio of the maximum fluorescence intensity after addition of the ATP solution to the fluorescence intensity at the starting of the measurement. […] The specific maximum fluorescence intensify and IC50 were calculated using Spotfire (Science & Technology Systems. Inc.)
# [3] = Solubility test (1% DMSO, artificial intestinal juice pH 6.8); assay type: physicochemical; settings: artificial intestinal juice pH 6.8 with 1% DMSO, 25 °C, fassgf or other biorelevant, kinetic from dmso stock, artificial intestinal juice pH 6.8, 25 degrees Celsius, read-out: Solubulity
# Protocol: The solubility of a compound was determined under a condition in which 1% DMSO was added. 10 mmol/L compound solution was prepared using DMSO, and then 2 μL of the compound solution was added to 198 μL of artificial intestinal juice in pH 6.8 (to 250 mL of 0.2 mol/L potassium dihydrogen phosphate reagent solution was added 118 mL of 0.2 mol/L NaOH reagent solution and water to provide a final volume of 1000 mL). After standing at 25 degrees Celsius for 18 hours, the mixed solution was filtrated with suction. The filtrate was diluted twice with methanol/water (1/1), and then a concentration in the filtration was measured with HPLC or LC/MS/MS by the absolute calibration method.
# [4] = target: CYP3A4 (Homo sapiens (Human), UniProt P08684); assay: CYP inhibition test, CYP3A4; assay type: in vitro ADME; settings: pooled human hepatic microsome; terfenedine hydroxylation
# Chain of CYP3A4 (P08684 whole entry): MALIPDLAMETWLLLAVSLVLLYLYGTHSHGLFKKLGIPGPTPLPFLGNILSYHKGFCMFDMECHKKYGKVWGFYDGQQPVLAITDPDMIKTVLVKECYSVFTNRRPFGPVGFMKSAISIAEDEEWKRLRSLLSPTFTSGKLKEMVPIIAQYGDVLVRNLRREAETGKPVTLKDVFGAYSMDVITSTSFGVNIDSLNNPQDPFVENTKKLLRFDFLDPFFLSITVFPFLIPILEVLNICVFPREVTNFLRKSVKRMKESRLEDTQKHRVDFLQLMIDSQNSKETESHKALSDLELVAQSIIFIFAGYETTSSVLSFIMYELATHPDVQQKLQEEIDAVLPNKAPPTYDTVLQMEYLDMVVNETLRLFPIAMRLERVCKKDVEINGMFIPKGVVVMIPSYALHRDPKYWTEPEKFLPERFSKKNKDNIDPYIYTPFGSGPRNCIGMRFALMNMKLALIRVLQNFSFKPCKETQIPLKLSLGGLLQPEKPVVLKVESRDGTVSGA
# Protocol: (§1) Using commercially available pooled human hepatic microsome, and employing, as markers, 7-ethoxyresorufin-O-deethylation (CYP1A2), tolbutamide methyl-hydroxylation (CYP2C9), mephenytoin 4′-hydroxylation (CYP2C19), dextromethorphan O-demethylation (CYP2D6), and terfenedine hydroxylation as typical substrate metabolism reactions of human main five CYP enzyme forms (CYP1A2, 2C9, 2C19, 2D6, 3A4), an inhibitory degree of each metabolite production amount by a test compound was assessed.
# (§2) The reaction conditions were as follows: substrate, 0.5 μmol/L ethoxyresorufin (CYP1A2), 100 μmol/L tolbutamide (CYP2C9), 50 μmol/L S-mephenitoin (CYP2C19), 5 μmol/L dextromethorphan (CYP2D6), 1 μmol/L terfenedine (CYP3A4); reaction time, 15 minutes; reaction temperature, 37° C. enzyme, pooled human hepatic microsome 0.2 mg protein/mL; test, drug concentration, 1.0, 5.0, 10, 20 μmol/L (four points).
# (§3) Each five kinds of substrates, human hepatic microsome, or a test drug in 50 mmol/L Hepes buffer as a reaction solution was added to a […] at the composition as described above, NADPH, as a cofactor was added to initiate metabolism reactions as markers and, after the incubation at 37° C. for 15 minutes, a methanol/acetonitrile=1/1 (v/v) solution was added to stop the reaction. After the centrifugation at 3000 rpm for 15 minutes, resorufin (CYP1A2 metabolite) in the supernatant was quantified by a fluorescent multilabel counter and tributamide hydroxide (CYP2CP metabolite), mephenytoin 4′hydroxide (CYP2C19 metabolite), […] (CYP2D6 metabolite), and terfenadine alcohol (CYP3A4 metabolite) were quantified by LC/MS/MS.
# (§4) Addition of only DMSO being a solvent dissolving a drug to a reaction system was adopted as a control (100%), remaining activity (%) was calculated at each concentration of a test drug added as the solution and IC50 was calculated by reverse presumption by a logistic model using a concentration and an inhibition rate.
# [5] = target: CYP2D6 (Homo sapiens (Human), UniProt P10635); assay: CYP inhibition test, CYP2D6; assay type: in vitro ADME; settings: pooled human hepatic microsome; dextromethorphan O-demethylation
# Chain of CYP2D6 (P10635 whole entry): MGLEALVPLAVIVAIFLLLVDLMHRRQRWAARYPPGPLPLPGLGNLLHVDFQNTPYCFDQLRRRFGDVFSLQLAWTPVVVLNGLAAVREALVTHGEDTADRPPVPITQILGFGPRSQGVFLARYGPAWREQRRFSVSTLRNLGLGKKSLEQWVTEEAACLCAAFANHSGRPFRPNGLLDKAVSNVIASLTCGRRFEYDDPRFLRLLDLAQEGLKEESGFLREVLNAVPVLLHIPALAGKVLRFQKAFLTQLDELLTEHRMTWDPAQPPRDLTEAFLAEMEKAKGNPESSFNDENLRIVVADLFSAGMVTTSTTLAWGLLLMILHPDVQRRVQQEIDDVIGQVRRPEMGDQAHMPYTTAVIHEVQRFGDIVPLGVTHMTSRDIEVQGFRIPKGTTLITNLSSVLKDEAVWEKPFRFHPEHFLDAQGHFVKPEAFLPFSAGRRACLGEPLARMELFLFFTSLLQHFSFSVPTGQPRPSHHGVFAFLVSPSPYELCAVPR
# Protocol: as §1, §2, §3, §4
# [6] = target: CYP2C9 (Homo sapiens (Human), UniProt P11712); assay: CYP inhibition test, CYP2C9; assay type: in vitro ADME; settings: pooled human hepatic microsome; tolbutamide methyl-hydroxylation
# Chain of CYP2C9 (P11712 whole entry): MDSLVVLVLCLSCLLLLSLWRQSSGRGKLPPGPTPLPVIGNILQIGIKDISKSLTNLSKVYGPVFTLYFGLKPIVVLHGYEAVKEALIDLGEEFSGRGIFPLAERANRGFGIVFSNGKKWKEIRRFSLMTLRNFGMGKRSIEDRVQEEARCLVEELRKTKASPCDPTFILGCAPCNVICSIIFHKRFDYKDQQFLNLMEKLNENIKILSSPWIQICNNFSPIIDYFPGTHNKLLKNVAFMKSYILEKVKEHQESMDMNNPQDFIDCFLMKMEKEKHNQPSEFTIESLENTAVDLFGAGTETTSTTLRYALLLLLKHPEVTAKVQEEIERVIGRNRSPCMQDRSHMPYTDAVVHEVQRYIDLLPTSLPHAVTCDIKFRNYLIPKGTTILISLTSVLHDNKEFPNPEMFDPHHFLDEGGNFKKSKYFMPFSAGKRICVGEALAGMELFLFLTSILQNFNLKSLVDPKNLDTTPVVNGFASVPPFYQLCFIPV
# Protocol: as §1, §2, §3, §4
# [7] = target: CYP2C19 (Homo sapiens (Human), UniProt P33261); assay: CYP inhibition test, CYP2C19; assay type: in vitro ADME; settings: pooled human hepatic microsome; mephenytoin 4′-hydroxylation
# Chain of CYP2C19 (P33261 whole entry): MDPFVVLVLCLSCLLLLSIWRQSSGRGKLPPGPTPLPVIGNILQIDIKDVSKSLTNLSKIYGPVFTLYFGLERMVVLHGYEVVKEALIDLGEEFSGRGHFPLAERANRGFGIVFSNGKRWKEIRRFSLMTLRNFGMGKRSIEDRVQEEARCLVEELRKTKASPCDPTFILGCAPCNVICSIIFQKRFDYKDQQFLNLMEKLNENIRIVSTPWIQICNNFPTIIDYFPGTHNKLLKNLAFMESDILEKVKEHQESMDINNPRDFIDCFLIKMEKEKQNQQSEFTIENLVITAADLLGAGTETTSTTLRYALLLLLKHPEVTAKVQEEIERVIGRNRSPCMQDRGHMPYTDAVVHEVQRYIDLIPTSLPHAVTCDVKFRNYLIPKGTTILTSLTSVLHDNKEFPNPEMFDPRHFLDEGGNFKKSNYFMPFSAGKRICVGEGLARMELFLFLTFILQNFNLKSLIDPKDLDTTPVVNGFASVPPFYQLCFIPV
# Protocol: as §1, §2, §3, §4
# [8] = target: CYP1A2 (Homo sapiens (Human), UniProt P05177); assay: CYP inhibition test, CYP1A2; assay type: in vitro ADME; settings: pooled human hepatic microsome; 7-ethoxyresorufin-O-deethylation
# Chain of CYP1A2 (P05177 whole entry): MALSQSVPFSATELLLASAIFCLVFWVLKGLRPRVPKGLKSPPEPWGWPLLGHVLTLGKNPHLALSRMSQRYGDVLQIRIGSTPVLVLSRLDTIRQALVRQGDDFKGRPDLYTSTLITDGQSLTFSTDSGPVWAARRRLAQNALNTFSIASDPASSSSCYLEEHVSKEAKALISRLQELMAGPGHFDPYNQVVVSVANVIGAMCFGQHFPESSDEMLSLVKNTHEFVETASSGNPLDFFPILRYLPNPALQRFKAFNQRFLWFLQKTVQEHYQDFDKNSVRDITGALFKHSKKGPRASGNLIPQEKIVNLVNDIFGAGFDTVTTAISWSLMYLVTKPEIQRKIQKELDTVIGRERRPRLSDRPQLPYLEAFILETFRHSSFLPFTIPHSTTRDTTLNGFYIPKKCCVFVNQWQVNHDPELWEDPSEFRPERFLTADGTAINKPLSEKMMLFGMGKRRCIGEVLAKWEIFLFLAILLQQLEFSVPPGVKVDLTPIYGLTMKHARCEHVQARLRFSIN
# Protocol: as §1, §2, §3, §4
# [9] = target: T1, human P2X3 receptor; assay: Evaluation of human P2X3 receptor inhibitory activity in the presence of human serum albumin (HSA); assay type: cell-based; settings: in the presence of 1% HSA (final concentration)
# Protocol: Stably expressing cell line (C6BU-1 cell transfected with human P2X3 receptor gene (GenBank accession number Y07683; was used. The cells were seeded in a 96-well microtiter plate at a concentration of 8000 cells/well and cultured in the medium (7.0% fetal bovine serum, 7.0% horse serum, 1% antibiotic and antifungal, and 2.0% glutamine in DMEM) for one day at 37° C. under 5% carbon dioxide atmosphere. The medium was replaced with 4 μM Fluo-3-AM solution (20 mM HEPES, 137 mM NaCl, 5.37 mM KCl, 0.9 mM MgCl2, 1.26 mM CaCl2, 5.6 mM D-glucose, 2.5 mM probenecid, 0.5% BSA, and 0.04% Pluronic F-127, pH 7.5) and incubated at 37° C. under 5% dioxide carbon atmosphere for one hour. The plate was washed with washing buffer (20 mM HEPES, 137 mM NaCl, 5.27 mM KCl, 0.9 mM MgCl2, 1.26 mM CaCl2, 5.6 mM D-glucose, 2.5 mM probenecid, pH 7.5), and each well was added with 40 μL of this buffer. The plate was placed in High-Throughput Screening System FDSS 3000 (Hamamatsu Photonics K.K.). Measurement of fluorescence intensity by FDSS 3000 was started, and 40 μL of DMSO solutions containing 1% HSA (final concentrations) different concentrations of the test compound as prepared by dilution with dilution buffer (20 mM HEPES, 137 mM NaCl, 5.27 mM KCl, 0.9 mM MgCl2, 1.26 mM CaCl2, 5.6 mM D-glucose, 2.5 mM probenecid, 0.1% Pluronic F-127, pH 7.5) were dispensed to each well through the built-in automatic dispenser. Five minutes after, 50 nM ATP solution (50 μL) prepared by dilution with the dilution buffer was dispensed through the built-in automatic dispenser, and the measurement of fluorescence intensity was continued for 4 min. For each well, the specific maximum fluorescence intensity was calculated as the ratio of the maximum fluorescence intensity after addition of the ATP solution to the fluorescence intensity at the starting of the measurement. […] FDSS software (Hamamatsu Photonics K.K.) was used for calculation of the specific maximum fluorescence intensity. IC50 was calculated using Microsoft Excel (Microsoft Corporation) and XLfit (idbs Ltd.)
# Chain of Rat P2X3 receptor (P49654 whole entry): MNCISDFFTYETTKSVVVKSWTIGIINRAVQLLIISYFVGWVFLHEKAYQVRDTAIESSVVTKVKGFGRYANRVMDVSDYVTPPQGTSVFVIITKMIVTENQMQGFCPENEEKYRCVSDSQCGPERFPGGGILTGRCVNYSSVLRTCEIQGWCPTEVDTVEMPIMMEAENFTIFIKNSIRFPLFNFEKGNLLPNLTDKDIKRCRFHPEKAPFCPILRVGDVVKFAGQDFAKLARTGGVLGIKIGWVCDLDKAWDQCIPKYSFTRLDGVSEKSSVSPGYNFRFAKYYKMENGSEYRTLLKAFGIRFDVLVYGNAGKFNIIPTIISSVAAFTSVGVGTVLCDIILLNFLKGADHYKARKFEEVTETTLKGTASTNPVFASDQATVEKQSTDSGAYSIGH
structure (smiles),measurement,setting,value
C[C@@H](Cn1c(=O)[nH]/c(=N\c2ccc(Oc3ccc(OC(F)F)cn3)cc2)n(Cc2ccc(Cl)cc2)c1=O)C(=O)O [Compound I-022],IC50,[1],11 nM
COC(=O)[C@@H](C)Cn1c(=O)[nH]/c(=N\c2ccc(Oc3ccc(F)cn3)cc2)n(Cc2ccc(F)cc2F)c1=O [Compound I-025],IC50,[2],23 nM
Cc1ccc(Cn2c(=O)n(C[C@H](C)C(=O)O)c(=O)[nH]/c2=N\c2ccc(Oc3ccc(C(F)(F)F)cn3)cc2)cc1 [Compound I-038],solubility at 18 h,[3],> 50 µM
Cc1ccc(Cn2c(=O)n(C[C@H](C)C(=O)O)c(=O)[nH]/c2=N\c2ccc(Oc3cccc(C(F)(F)F)n3)cc2)cc1 [Compound I-039],solubility at 18 h,[3],> 50 µM
Cc1ccc(Cn2c(=O)n(CC(C)(C)C(=O)O)c(=O)[nH]/c2=N\c2ccc(Oc3ccc(F)cn3)cc2)cc1 [Compound I-041],IC50,[4],> 20000 nM
same,solubility at 18 h,[3],> 50 µM
same,IC50,[5],> 20000 nM
same,IC50,[6],> 20000 nM
same,IC50,[7],> 20000 nM
same,IC50,[8],> 20000 nM
COc1ccc(Oc2ccc(/N=c3\[nH]c(=O)n(C[C@H](C)C(=O)O)c(=O)n3Cc3ccc(Cl)cc3)cc2)nc1 [Compound I-079],IC50,[9],37 nM
Cc1ccc(Cn2c(=O)n(C[C@H](C)C(=O)O)c(=O)[nH]/c2=N\c2ccc(Oc3ccc(Cl)cn3)cc2)cc1 [Compound I-100],IC50,[1],9 nM
Cc1ccc(Cn2c(=O)n([C@@H](C)[C@@H](C)C(=O)O)c(=O)[nH]/c2=N\c2ccc(Oc3ccc(C)cn3)cc2)cc1 [Compound I-113],IC50,[1],10 nM
[2H]C([2H])([2H])c1ccc(Cn2c(=O)n(C[C@H](C)C(=O)O)c(=O)[nH]/c2=N\c2ccc(Oc3ccc(F)cn3)cc2)cc1 [Compound I-130],IC50,[2],6 nM
COC(=O)[C@@H](C)Cn1c(=O)[nH]/c(=N\c2ccc(Oc3ccccn3)c(F)c2)n(C[C@H]2CC[C@H](C)CC2)c1=O [Compound I-253],IC50,[2],9 nM
C[C@@H](Cn1c(=O)[nH]/c(=N\c2ccc(Oc3cnc(Cl)cn3)cc2)n(Cc2ccc(Cl)cc2)c1=O)C(=O)O [Compound R-014],IC50,[4],> 20000 nM
same,IC50,[1],6 nM
same,IC50,[5],> 20000 nM
same,IC50,[6],> 20000 nM
same,IC50,[7],> 20000 nM
same,IC50,[8],> 20000 nM
C[C@@H](Cn1c(=O)[nH]/c(=N\c2ccc(Oc3cccnn3)c(F)c2)n(Cc2ccc(Cl)cc2)c1=O)C(=O)O [Compound R-037],IC50,[1],8 nM
C[C@@H](Cn1c(=O)[nH]/c(=N\c2ccc(Oc3ccnc(C#N)c3)cc2)n(Cc2ccc(Cl)cc2)c1=O)C(=O)O [Compound R-123],IC50,[9],18 nM
C[C@@H](C(=O)O)[C@H](C)n1c(=O)[nH]/c(=N\c2ccc(Oc3ccnc(Cl)c3)cc2)n(Cc2ccc(Cl)cc2)c1=O [Compound R-154],IC50,[2],8 nM
Cc1ccc(Cn2c(=O)n(C[C@H](C)C(=O)O)c(=O)[nH]/c2=N\c2ccc(Oc3ncc(C)s3)cc2)cc1 [Compound R-218],IC50,[2],8 nM
